Common to all, as to type: in vivo
The test system of experiment [1] is Kochia (Kochia scoparia). Put plainly: Test A preemergence. The conditions noted are these: Bassia scoparia, pre-emergence, 240 h; for pest or weed control at 125 g/ha: 125 g ai/ha, 0 to 100 scale where 0 is no effect and 100 is complete control; for pest or weed control at 500 g/ha: 500 g ai/ha. The method in brief: (§1)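 Visual injury scores from 0, no effect, to 100, complete control, were assigned versus untreated controls roughly 10 d after treatment in the greenhouse. Test chemicals, formulated with surfactant in a non-phytotoxic solvent, were applied to planted seeds as a preemergence soil spray or postemergence to one- to two-leaf plants 2 to 10 cm tall, in loam–sand soil.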

Experiment [2] concerns barnyardgrass (Echinochloa crus-galli). Put plainly: Test A preemergence. The conditions noted are these: Echinochloa crus-galli, pre-emergence, 240 h; for pest or weed control at 125 g/ha: 125 g ai/ha, 0 to 100 scale where 0 is no effect and 100 is complete control; for pest or weed control at 500 g/ha: 500 g ai/ha. The method in brief: as §1
In experiment [3] the test system is ragweed (common ragweed, Ambrosia elatior). In words: Test A preemergence. The settings on record: Ambrosia artemisiifolia, pre-emergence, 240 h; for pest or weed control at 500 g/ha: 500 g ai/ha. The method in brief:
as §1

Experiment [4] relates to pigweed (Amaranthus retroflexus). In words: Test A preemergence. The conditions noted are these: Amaranthus retroflexus, pre-emergence, 240 h; for pest or weed control at 125 g/ha: 125 g ai/ha, 0 to 100 scale where 0 is no effect and 100 is complete control; for pest or weed control at 500 g/ha: 500 g ai/ha.
The subject of experiment [5] is ryegrass, Italian (Italian ryegrass, Lolium multiflorum). Put plainly: Test A preemergence. The settings on record: Lolium multiflorum, pre-emergence, 240 h; for pest or weed control at 500 g/ha: 500 g ai/ha. The method in brief:
as §1

Experiment [6] relates to giant foxtail (Setaria faberii). In words: Test A preemergence. The settings on record: Setaria faberi, pre-emergence, 240 h; for pest or weed control at 125 g/ha: 125 g ai/ha, 0 to 100 scale where 0 is no effect and 100 is complete control; for pest or weed control at 500 g/ha: 500 g ai/ha. The method in brief:
as §1

Experiment [7] has as its system corn (Zea mays). Put plainly: Test A postemergence. The conditions noted are these: Zea mays, post-emergence, 240 h, 125 g ai/ha, Postemergence; visual injury after approximately 10 d; 0 to 100 scale where 0 is no effect and 100 is complete control. The method in brief: as §1
Experiment [8] relates to Kochia (Kochia scoparia). Put plainly: Test A postemergence. The settings on record: Bassia scoparia, post-emergence, 240 h, 125 g ai/ha, Postemergence; visual injury after approximately 10 d; 0 to 100 scale where 0 is no effect and 100 is complete control; read-out: Plant response rating, Kochia. The method in brief: as §1
The subject of experiment [9] is blackgrass (Alopecurus myosuroides). In words: Test A postemergence. The conditions noted are these: Alopecurus myosuroides, post-emergence, 240 h, 125 g ai/ha, Postemergence; visual injury after approximately 10 d; 0 to 100 scale where 0 is no effect and 100 is complete control; read-out: Plant response rating, Blackgrass. The gist of the method: as §1
Experiment [10] has as its system barnyardgrass (Echinochloa crus-galli). In words: Test A postemergence. The conditions noted are these: Echinochloa crus-galli, post-emergence, 240 h, 125 g ai/ha, Postemergence; visual injury after approximately 10 d; 0 to 100 scale where 0 is no effect and 100 is complete control; read-out: Plant response rating, Barnyardgrass. The method in brief: as §1
Experiment [11] has as its system ragweed (common ragweed, Ambrosia elatior). In words: Test A postemergence. The settings on record: Ambrosia artemisiifolia, post-emergence, 240 h, 125 g ai/ha, Postemergence; visual injury after approximately 10 d; 0 to 100 scale where 0 is no effect and 100 is complete control; read-out: Plant response rating, Ragweed. The gist of the method:
as §1

Experiment [12] has as its system Galium (catchweed bedstraw, Galium aparine). In words: Test A postemergence. The conditions noted are these: Galium, post-emergence, 240 h, 125 g ai/ha, Postemergence; visual injury after approximately 10 d; 0 to 100 scale where 0 is no effect and 100 is complete control; read-out: Plant response rating, Galium. The gist of the method:
as §1

The subject of experiment [13] is wheat (Triticum aestivum). Put plainly: Test A postemergence. The conditions noted are these: Triticum aestivum, post-emergence, 240 h, 125 g ai/ha, Postemergence; visual injury after approximately 10 d; 0 to 100 scale where 0 is no effect and 100 is complete control; read-out: Plant response rating, Wheat. The method in brief: as §1
In experiment [14] the test system is pigweed (Amaranthus retroflexus). Put plainly: Test A postemergence. The conditions noted are these: Amaranthus retroflexus, post-emergence, 240 h, 125 g ai/ha, Postemergence; visual injury after approximately 10 d; 0 to 100 scale where 0 is no effect and 100 is complete control; read-out: Plant response rating, Pigweed. The gist of the method:
as §1

For experiment [15], the system named is ryegrass, Italian (Italian ryegrass, Lolium multiflorum). Put plainly: Test A postemergence. The settings on record: Lolium multiflorum, post-emergence, 240 h, 125 g ai/ha, Postemergence; visual injury after approximately 10 d; 0 to 100 scale where 0 is no effect and 100 is complete control; read-out: Plant response rating, Ryegrass, Italian. The gist of the method:
as §1

The subject of experiment [16] is giant foxtail (Setaria faberii). In words: Test A postemergence. The settings on record: Setaria faberi, post-emergence, 240 h, 125 g ai/ha, Postemergence; visual injury after approximately 10 d; 0 to 100 scale where 0 is no effect and 100 is complete control; read-out: Plant response rating, Foxtail, Giant. The gist of the method: as §1
The mark [17] stands for this setting: preemergence, read-out: Kochia plant response rating.
[18] abbreviates: preemergence, read-out: Barnyardgrass plant response rating.
Setting [19] is: preemergence, read-out: Pigweed plant response rating.
Setting [20] is: preemergence, read-out: Foxtail, Giant plant response rating.
Where [21] appears, read: preemergence, visual injury rating about 10 d after treatment, 0 to 100 scale (0 no effect, 100 complete control), read-out: Kochia plant response rating.
The mark [22] stands for this setting: preemergence, visual injury rating about 10 d after treatment, 0 to 100 scale (0 no effect, 100 complete control), read-out: Barnyardgrass plant response rating.
Setting [23] is: preemergence, visual injury rating about 10 d after treatment, 0 to 100 scale (0 no effect, 100 complete control), read-out: Ragweed plant response rating.
The mark [24] stands for this setting: preemergence, visual injury rating about 10 d after treatment, 0 to 100 scale (0 no effect, 100 complete control), read-out: Pigweed plant response rating.
Setting [25] is: preemergence, visual injury rating about 10 d after treatment, 0 to 100 scale (0 no effect, 100 complete control), read-out: Ryegrass, Italian plant response rating.
The mark [26] stands for this setting: preemergence, visual injury rating about 10 d after treatment, 0 to 100 scale (0 no effect, 100 complete control), read-out: Foxtail, Giant plant response rating.

SMILES strings stand for the structures. Like-named read-outs stand apart in the source and are kept apart here.

`O=C(Nc1cccc(F)c1F)[C@H]1C(=O)N(C2CC2)CC[C@@H]1c1cccc(C(F)(F)F)c1` [Compound 925]: the pest or weed control at 125 g/ha in experiment [1] (setting [17]) stood at 0%; in [2] (setting [18]), 30%; in experiment [3] (125 g ai/ha, preemergence, 0 to 100 scale where 0 is no effect and 100 is complete control, read-out: Ragweed plant response rating) it was 0%; in experiment [4] (setting [19]) it was 0%; in [5] (125 g ai/ha, preemergence, 0 to 100 scale where 0 is no effect and 100 is complete control, read-out: Ryegrass, Italian plant response rating), 30%; in experiment [6] (setting [20]) it was 80%. For the same compound, the pest or weed control at 125 g/ha was found to be 0% in experiment [8]; 0% in experiment [9]; 40% in experiment [10]; 0% in experiment [11]; 0% in [12]; 0% in [14]. Moreover, the figures for the pest or weed control at 125 g/ha in [15] and in experiment [16] were 0% and 40%, respectively. The pest or weed control at 500 g/ha in experiment [1] (Preemergence, visual injury vs untreated controls after approximately 10 d, read-out: Kochia plant response rating (0 to 100 scale where 0 is no effect and 100 is complete control)) is 0%; in experiment [2] (Preemergence, visual injury vs untreated controls after approximately 10 d, read-out: Barnyardgrass plant response rating (0 to 100 scale where 0 is no effect and 100 is complete control)), 90%; in experiment [3] (Preemergence, visual injury vs untreated controls after approximately 10 d, read-out: Ragweed plant response rating (0 to 100 scale where 0 is no effect and 100 is complete control)), 0%; in [4] (Preemergence, visual injury vs untreated controls after approximately 10 d, read-out: Pigweed plant response rating (0 to 100 scale where 0 is no effect and 100 is complete control)) it was 0%; in [5] (Preemergence, visual injury vs untreated controls after approximately 10 d, read-out: Ryegrass, Italian plant response rating (0 to 100 scale where 0 is no effect and 100 is complete control)), 30%; in experiment [6] (Preemergence, visual injury vs untreated controls after approximately 10 d, read-out: Foxtail, Giant plant response rating (0 to 100 scale where 0 is no effect and 100 is complete control)), 90%. The compound further had a Corn plant response rating (crop injury, 0 = no effect, 100 = complete kill) at 125 g/ha in experiment [7] of 0%. The plant injury at 125 g/ha in experiment [13] worked out at 0%.

In the case of `Cc1cc([C@H]2CN(C)C(=O)[C@@H]2C(=O)Nc2cccc(F)c2F)ccc1Cl` [Compound 929], the pest or weed control at 125 g/ha in [1] (setting [17]) was determined as 70%; in experiment [2] (setting [18]), 90%; in experiment [4] (setting [19]), 20%; in experiment [6] (setting [20]), 90%; in experiment [8], 40%; in [9], 40%. The pest or weed control at 125 g/ha in [10] amounted to 90%; in experiment [11], 20%; in [12], 50%; in experiment [14] it was 20%; in experiment [15], 50%; in experiment [16], 90%. For the same compound, the pest or weed control at 500 g/ha in experiment [1] (setting [21]) came to 90%; in [2] (setting [22]) it was 90%; in experiment [3] (setting [23]) it was 30%; in [4] (setting [24]), 50%; in [5] (setting [25]), 80%; in experiment [6] (setting [26]), 90%. Moreover, in experiment [7], the Corn plant response rating (crop injury, 0 = no effect, 100 = complete kill) at 125 g/ha was 40%. Moreover, in [13], the plant injury at 125 g/ha was 30%.

With `Cc1cc([C@H]2CN(C)C(=O)[C@@H]2C(=O)Nc2ccc(F)c(F)c2F)ccc1Cl` [Compound 931], the pest or weed control at 125 g/ha in [1] (setting [17]) was 90%; in experiment [2] (setting [18]), 90%; in [4] (setting [19]), 30%; in experiment [6] (setting [20]), 90%; in [8] it was 30%; in [9], 20%. The pest or weed control at 125 g/ha in experiment [10] came to 80%; in experiment [11], 0%; in experiment [12] it was 40%; in [14], 20%; in experiment [15], 30%; in [16], 90%. The pest or weed control at 500 g/ha in [1] (setting [21]) is 90%; in experiment [2] (setting [22]), 90%; in [3] (setting [23]), 30%; in experiment [4] (setting [24]), 40%; in [5] (setting [25]), 70%; in [6] (setting [26]), 90%. This compound also registered a Corn plant response rating (crop injury, 0 = no effect, 100 = complete kill) at 125 g/ha in experiment [7] of 70%. The plant injury at 125 g/ha in experiment [13] is 30%.

For the compound `Cc1cc([C@H]2CN(C)C(=O)[C@@H]2C(=O)Nc2ccccc2C(F)(F)F)ccc1Cl` [Compound 932], the pest or weed control at 125 g/ha in experiment [1] (setting [17]) is 40%; in experiment [2] (setting [18]), 90%; in experiment [4] (setting [19]), 0%; in [6] (setting [20]), 90%; in [8] it was 30%; in experiment [9], 40%. In addition, the pest or weed control at 125 g/ha came out at 90% in experiment [10]; 0% in [11]; 40% in experiment [12]; 40% in experiment [14]; 30% in [15]; 90% in [16]. In addition, the pest or weed control at 500 g/ha came out at 70% in experiment [1] (setting [21]); 90% in experiment [2] (setting [22]); 30% in [3] (setting [23]); 30% in experiment [4] (setting [24]); 60% in experiment [5] (setting [25]); 100% in experiment [6] (setting [26]). In [7], the Corn plant response rating (crop injury, 0 = no effect, 100 = complete kill) at 125 g/ha stood at 20%. Further, the plant injury at 125 g/ha in experiment [13] was determined as 30%.

The record behind these values is patent US12077503B2, “Substituted cyclic amides and their use as herbicides” (FMC CORPORATION, priority 2015, dated 2024).
